From patent publication US12410136B2, “Pyridinyl morpholine compound, preparation method therefor, and application thereof” (SHANGHAI ZHONGZE THERAPEUTICS, CO. LTD., priority 2020, dated 2025) come the findings set out here.

The structures appear in SMILES notation. Where two headings read alike, the source gives them in different places. Bounds are passed on as bounds.

As usually defined, the Ki is a dissociation constant, usually derived from enzyme kinetics or from competition with a known ligand. The term ED50 denotes the midpoint of the dose-response relation.

For series [1], the target named is T1, human recombinant D3 receptor (Homo sapiens, UniProt P35462).
T1 construct: expressed in transfected cells; host or cells: CHO
The series is described as follows: Dopamine D3 receptor binding test. The note with it: [3H]methyl-spiperone 0.3 nM, human recombinant D3 receptor expressed in CHO cells; read-out: Affinity of the compound for each receptor (Ki value, nM) D3. Here is the method: Dopamine D3 Receptor Binding Test
[^3H]methyl-spiperone (0.3 nM) was used as the ligand, and (+)-butaclamol (10 μM) was used to determine the non-specific binding, and the binding assay was performed on human recombinant D3 receptor (expressed in CHO cells).

Another series deals with T2, 5-HT2A receptor (Homo sapiens, UniProt P28223).
T2 construct: expressed in transfected cells; host or cells: HEK293
The series can be described thus: 5-HT2A receptor binding test. From the text: 5-HT2A Receptor Binding Test
Beckman LS-6500 multifunctional liquid scintillation counter.
Tris-HCl reaction buffer (pH 7.7) was used to resuspend in the experiment.

A further series has as its target T3, H1 receptor (Homo sapiens, UniProt P35367).
T3 construct: expressed in transfected cells; host or cells: HEK-293
The series can be described thus: H1 receptor binding test. Conditions: 1 nM [3H]pyrilamine, HEK-293 cell membrane homogenate; read-out: Affinity of the compound for H1 receptor (Ki value, nM) H1. The procedure: Non-specific binding was determined in the presence of 1 μM pyrilamine.

Series [2] has as its system mouse schizophrenic model induced by Apo. The series can be described thus: Apomorphine model experiment (stereotyped motion). It counts as in vivo, C57BL/6 mice. The note with it: for ED50: Mus musculus, single oral administration, apomorphine 5 mg/kg i.p., mice, read-out: Inhibition of total stereotyped motion of mouse schizophrenic model induced by Apo., ED50; for Effect (ED50) on the stereotyped behavior of mice compared with cariprazine: apomorphine model, oral. Here is the method: 1. Apomorphine Model Experiment
1) 4 point, continuous biting;
2) 3 point, the cage lid was bit at least once during observation;
3) 2 point, the cage chassis or cage wall was licked at least once during observation;
4) 1 point, compulsive sniffing and bowing activities were appeared;
5) 0 point, no of the above activities.
The total score of the mice was calculated for the above behaviors within 70 min, and the improvement rate was calculated according to the following formula.
During the experiment, the clinical response symptoms of the animals were recorded.
All data were expressed as x±SEM, processed with the 11.5 software statistical package, and t-test and one-way analysis of variance were performed for the comparison of the means of the two samples, with P<0.05 as a significant difference.

Series [3] is described as follows: Acute toxicity experiment, single oral administration. The note with it: ICR, mouse, in vivo. Here is the method:
Acute Toxicity Experiments of the Compound
2) Solvent preparation: An appropriate amount of Tween-80 was weighed and diluted with deionized water to a concentration of […] (g/v) Tween-80.
4) Route of administration: The administration route of the test samples and the solvent control group (0.5% Tween-80) was oral administration.
5) Frequency of administration: Single administration, fasting overnight before administration.
6) Dosing capacity: 20 mL/kg.
[…]; the observation period was 2 to 6 days, twice a day, once in the morning and once in the afternoon.
The observation content includes, but is not limited to, general condition, behavioral activity, gait posture, eye, mouth, nose, gastrointestinal tract, skin hair, urogenital tract.
Body weight data were expressed as mean±standard deviation, and were compared between groups using Levene's test and one-way ANOVA. If there were differences, Dunnet t test was used.
In the MTD test, the tolerance of the animals to the drug was investigated, and the maximum tolerated dose was reached when the animals were dying frequently.

For another series, the target named is D2 receptor (Homo sapiens, UniProt P14416). The series can be described thus: Dopamine D2 receptor binding test.
Series [4] deals with mouse model of schizophrenia induced by MK-801. The series can be described thus: MK-801 model experiment (open-field motion). The note with it: for Improvement rate on open-field motion of mice compared with cariprazine: MK-801 model, oral; for ED50: Mus musculus, 1.5 h, read-out: Effect on the total distance of open-field motion in mouse model of schizophrenia induced by MK-801, ED50.
Method: An acute mode of administration was used in the experiment. The experimental mice were randomly divided into groups and put into a spontaneous activity box to adapt for 5-10 minutes before the experiment. […] The data were expressed as mean±standard error (Mean±SEM), and were analyzed using GraphPad Prism software, and data analysis was performed using t-test, and a significant difference was considered to exist when P<0.05.

[5] abbreviates: [3H]-Ketanserin, 5-HT2A receptor expressed in HEK293 cells, read-out: Affinity of the compound for each receptor (Ki value, nM) 5-HT2A.
The mark [6] stands for this setting: single oral administration, ICR mice, read-out: MTD (maximum tolerance).

T3 sequence (P35367 whole entry): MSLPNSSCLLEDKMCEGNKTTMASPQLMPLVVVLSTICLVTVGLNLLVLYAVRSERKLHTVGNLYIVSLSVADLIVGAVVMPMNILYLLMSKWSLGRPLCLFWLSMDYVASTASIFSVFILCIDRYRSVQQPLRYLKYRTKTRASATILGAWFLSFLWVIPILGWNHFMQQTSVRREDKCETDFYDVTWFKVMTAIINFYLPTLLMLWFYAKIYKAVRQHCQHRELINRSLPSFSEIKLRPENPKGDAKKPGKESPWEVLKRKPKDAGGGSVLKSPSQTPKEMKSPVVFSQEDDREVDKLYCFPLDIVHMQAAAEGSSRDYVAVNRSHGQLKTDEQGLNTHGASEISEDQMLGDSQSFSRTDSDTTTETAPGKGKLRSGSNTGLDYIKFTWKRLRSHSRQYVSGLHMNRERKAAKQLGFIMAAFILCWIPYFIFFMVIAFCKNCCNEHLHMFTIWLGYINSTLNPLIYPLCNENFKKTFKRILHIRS
T1 sequence (P35462 whole entry): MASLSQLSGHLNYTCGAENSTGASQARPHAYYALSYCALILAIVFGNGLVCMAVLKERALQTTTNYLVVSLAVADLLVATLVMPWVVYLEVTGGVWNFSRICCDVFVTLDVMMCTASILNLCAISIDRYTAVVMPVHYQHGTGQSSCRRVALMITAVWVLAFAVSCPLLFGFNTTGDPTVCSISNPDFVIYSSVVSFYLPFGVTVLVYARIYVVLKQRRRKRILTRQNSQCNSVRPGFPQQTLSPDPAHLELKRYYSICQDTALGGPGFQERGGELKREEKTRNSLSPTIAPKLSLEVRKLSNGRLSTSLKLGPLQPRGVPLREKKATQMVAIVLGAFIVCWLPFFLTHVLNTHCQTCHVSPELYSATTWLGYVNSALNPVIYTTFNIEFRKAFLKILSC
Chain of D2 receptor (P14416 whole entry): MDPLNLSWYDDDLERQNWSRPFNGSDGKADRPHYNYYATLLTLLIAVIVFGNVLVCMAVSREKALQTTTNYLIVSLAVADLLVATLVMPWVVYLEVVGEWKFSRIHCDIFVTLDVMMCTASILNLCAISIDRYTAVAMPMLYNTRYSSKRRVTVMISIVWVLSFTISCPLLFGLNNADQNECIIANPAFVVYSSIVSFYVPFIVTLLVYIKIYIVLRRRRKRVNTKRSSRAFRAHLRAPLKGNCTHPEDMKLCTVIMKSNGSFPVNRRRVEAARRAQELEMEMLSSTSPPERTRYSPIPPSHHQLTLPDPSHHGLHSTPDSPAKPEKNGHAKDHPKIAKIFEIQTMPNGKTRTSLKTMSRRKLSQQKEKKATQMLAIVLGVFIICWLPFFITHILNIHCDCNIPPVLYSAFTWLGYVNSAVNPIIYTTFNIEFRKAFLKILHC
T2 sequence (P28223 whole entry): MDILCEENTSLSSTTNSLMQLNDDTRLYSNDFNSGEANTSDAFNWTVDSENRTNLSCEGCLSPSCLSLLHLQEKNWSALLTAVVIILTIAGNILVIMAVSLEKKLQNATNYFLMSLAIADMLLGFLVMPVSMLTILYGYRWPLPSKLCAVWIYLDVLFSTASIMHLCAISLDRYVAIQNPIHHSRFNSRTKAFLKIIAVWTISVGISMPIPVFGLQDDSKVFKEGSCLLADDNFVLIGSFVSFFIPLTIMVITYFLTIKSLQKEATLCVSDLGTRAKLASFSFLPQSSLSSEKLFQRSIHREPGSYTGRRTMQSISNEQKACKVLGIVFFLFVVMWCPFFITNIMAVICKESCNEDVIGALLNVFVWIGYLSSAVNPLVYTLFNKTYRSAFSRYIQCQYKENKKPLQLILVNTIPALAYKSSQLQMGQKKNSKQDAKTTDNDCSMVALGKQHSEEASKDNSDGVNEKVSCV
Method for D2 receptor: Dopamine D2 Receptor Binding Test
In this experiment, HEK293 cells were transfected with plasmid vector containing D2 receptor protein gene, and calcium phosphate transfection method was used and after transfection, the cells were cultured in a culture solution containing G418, and the cell monoclonal and radioligand binding experiments were selected, and finally a stable cell line which could stably express D2 receptor protein was obtained.
HeK-293 cells were infected with recombinant viruses containing the above various genes respectively, and after 48-72 hours, the receptor proteins were expressed in large quantities on the membrane, and the cells were centrifuged at 1000 rpm for 5 min and then the culture solution was discarded, and the cells were collected, and stored in a −20° C. refrigerator for later use. Tris-HCl reaction buffer (pH=7.5) was used to resuspend in the experiment.
On the Millipore cell sample collector, the mixture was quickly filtrated under reduced pressure through GF/C glass fiber filter paper, and eluted with 3 mL of eluent (50 mMTris-HCl, pH 7.5) for 3 times, then dried under microwave for 5 to 6 min. The filter paper was moved into a 0.5 mL centrifuge tube, and 500 μL of lipid-soluble scintillation solution was added. The mixture was kept in the dark for more than 30 min, and the radioactivity intensity was determined by counting. […] Two replicate tubes were made for each experiment of compound, and two separate experiments were performed.
Two tubes were tested for each concentration and two independent tests were performed for each compound.

As to `O=C(N[C@H]1CC[C@H](CCN2CCN(c3cc(-c4cccnc4)cc(N4CCOCC4)n3)CC2)CC1)c1ccco1` [IV-2], the Ki in series [1] was 0.03 nM; on 5-HT2A receptor (setting [5]), 1.1 nM; on H1 receptor it was more than 1000 nM; at D2 receptor, 0.9 nM. In addition, the figures for the ED50 in series [2] and in series [4] were 0.1 mg/kg and 0.05 mg/kg, respectively. In addition, the “Effect (ED50) on the stereotyped behavior of mice compared with cariprazine” value (“Effect (ED50) … compared with cariprazine” below) in series [2] is “better effects”. In series [3] (setting [6]), the MTD was more than 2000 mg/kg. Moreover, the “Improvement rate on open-field motion of mice compared with cariprazine” value (“Improvement rate … compared with cariprazine” below) in series [4] is given as “better”.
For `CN(C)C(=O)N[C@H]1CC[C@H](CCN2CCN(c3cc(-c4ccc[nH]4)cc(N4CCOCC4)n3)CC2)CC1` [VII-4, 1,1-dimethyl-3-(trans-4-(2-(4-(6-morpholino-4-(1H-pyrrol-2-yl)pyridin-2-yl)piperazin-1-yl)ethyl)cyclohexyl)urea], the Ki in series [1] was 0.03 nM; at 5-HT2A receptor (setting [5]), 1.1 nM; at H1 receptor, more than 1000 nM; on D2 receptor it was 0.6 nM. Also, the results for the 50% effective dose (ED50) in series [2] and in series [4] were 0.2 mg/kg and 0.25 mg/kg, respectively. Also, the “Effect (ED50) … compared with cariprazine” value in series [2] is recorded as “better effects”. In series [3] (setting [6]), the MTD was not below 400 mg/kg.
`CCCN(C)C(=O)N[C@H]1CC[C@H](CCN2CCN(c3cc(-c4ccc(F)cc4)cc(N4CCOCC4)n3)CC2)CC1` [II-6, 3-(trans-4-(2-(4-(4-(4-fluorophenyl)-6-morpholinopyridin-2-yl)piperazin-1-yl)ethyl)cyclohexyl)-1-methyl-1-propylurea]: the inhibition constant Ki in series [1] is 0.04 nM; at 5-HT2A receptor (setting [5]), 1.3 nM; on H1 receptor, more than 1000 nM; on D2 receptor, 1 nM. Also, the ED50 in series [2] turned out to be 0.13 mg/kg; in series [4] it was 0.1 mg/kg. Also, the “Effect (ED50) … compared with cariprazine” value in series [2] was “better effects”. In addition, in series [4], the “Improvement rate … compared with cariprazine” value was “better”.
Consider `O=C(N[C@H]1CC[C@H](CCN2CCN(c3cc(-c4ccccc4)cc(N4CCOCC4)n3)CC2)CC1)c1ccco1` [Compound I-6, N-((trans)-4-(2-(4-(6-morpholino-4-phenylpyridin-2-yl)piperazin-1-yl)ethyl)cyclohexyl)furan-2-carboxamide], for which the Ki in series [1] was 0.02 nM; on 5-HT2A receptor (setting [5]) it was 1 nM; at H1 receptor, more than 1000 nM; at D2 receptor, 0.14 nM. Further, the ED50 in series [2] was 0.43 mg/kg; in series [4], 0.2 mg/kg. In series [3] (setting [6]), the MTD is more than 2000 mg/kg.
Regarding `O=C(N[C@H]1CC[C@H](CCN2CCN(c3cc(-c4cccs4)cc(N4CCOCC4)n3)CC2)CC1)N1CCCC1` [VI-5, N-(trans-4-(2-(4-(6-morpholino-4-(thiophen-2-yl)pyridin-2-yl)piperazin-1-yl)ethyl)cyclohexyl)tetrahydropyrrole-1-carboxamide], the Ki in series [1] is 0.07 nM; at 5-HT2A receptor (setting [5]) it was 1.1 nM; on H1 receptor, more than 1000 nM; on D2 receptor, 1 nM. The 50% effective dose (ED50) in series [2] was determined as 0.16 mg/kg; in series [4] it was 0.08 mg/kg. Moreover, the “Effect (ED50) … compared with cariprazine” value in series [2] is given as “better effects”. Further, in series [3] (setting [6]), the MTD was more than 2000 mg/kg.
Turning to `O=C(N[C@H]1CC[C@H](CCN2CCN(c3cc(-c4ccco4)cc(N4CCOCC4)n3)CC2)CC1)N1CCOCC1` [Compound V-5, N-(trans-4-(2-(4-(4-(furan-2-yl)-6-morpholinopyridin-2-yl)piperazin-1-yl)ethyl)cyclohexyl)morpholine-4-carboxamide], the Ki is 0.04 nM in series [1], 2.9 nM on 5-HT2A receptor (setting [5]), more than 1000 nM at H1 receptor and 1 nM at D2 receptor. Also, the results for the ED50 in series [2] and in series [4] were 0.78 mg/kg and 0.51 mg/kg, respectively. Also, the MTD in series [3] (setting [6]) is not below 400 mg/kg.
For the molecule `CN(C)C(=O)N[C@H]1CC[C@H](CCN2CCN(c3cccc(Cl)c3Cl)CC2)CC1` [Cariprazine, cariprazine, reference compound], the ED50 in series [2] was found to be 0.3 mg/kg; in series [4] it was 0.15 mg/kg. The same molecule gave an MTD in series [3] of 320 mg/kg.
In the case of `CCOC(=O)N[C@H]1CC[C@H](CCN2CCN(c3cc(-c4ccccc4)cc(N4CCOCC4)n3)CC2)CC1` [Compound I-3, ethyl ((trans)-4-(2-(4-(6-morpholino-4-phenylpyridin-2-yl)piperazin-1-yl)ethyl)cyclohexyl)carbamate], the Ki in series [1] is 0.08 nM; on 5-HT2A receptor, 2.1 nM; at H1 receptor, more than 1000 nM; on D2 receptor it was 2.5 nM. Further, the ED50 in series [2] is 0.19 mg/kg; in series [4], 0.33 mg/kg. Besides, the “Effect (ED50) … compared with cariprazine” value in series [2] was “better effects”. The MTD in series [3] (setting [6]) was not below 400 mg/kg.
On to `CC(=O)N[C@H]1CC[C@H](CCN2CCN(c3cc(-c4cccs4)cc(N4CCOCC4)n3)CC2)CC1` [VI-1, N-(trans-4-(2-(4-(6-morpholino-4-(thiophen-2-yl)pyridin-2-yl)piperazin-1-yl)ethyl)cyclohexyl)acetamide], for which the Ki was 0.05 nM in series [1], 1.6 nM at 5-HT2A receptor (setting [5]), more than 1000 nM on H1 receptor and 0.8 nM at D2 receptor. Besides, the 50% effective dose (ED50) came to 0.55 mg/kg in series [2] and 0.12 mg/kg in series [4]. Moreover, in series [4], the “Improvement rate … compared with cariprazine” value is “better”.
As to `O=C(N[C@H]1CC[C@H](CCN2CCN(c3cc(-c4ccc(F)cc4)cc(N4CCOCC4)n3)CC2)CC1)c1cccnc1` [II-2, N-(trans-4-(2-(4-(4-(4-fluorophenyl)-6-morpholinopyridin-2-yl)piperazin-1-yl)ethyl)cyclohexyl)nicotinamide], the Ki in series [1] is 0.07 nM; on 5-HT2A receptor (setting [5]) it was 2.4 nM; on H1 receptor, more than 1000 nM; on D2 receptor, 0.9 nM. The figures for the ED50 in series [2] and in series [4] were 0.08 mg/kg and 0.07 mg/kg, respectively. In addition, the “Effect (ED50) … compared with cariprazine” value in series [2] was “better effects”. Also, the MTD in series [3] (setting [6]) was not below 400 mg/kg. The “Improvement rate … compared with cariprazine” value in series [4] is given as “better”.
